The target of series [1] is T1, glutaminase (Homo sapiens, UniProt O94925).
T1 sequence (O94925 124-669 limits assumed): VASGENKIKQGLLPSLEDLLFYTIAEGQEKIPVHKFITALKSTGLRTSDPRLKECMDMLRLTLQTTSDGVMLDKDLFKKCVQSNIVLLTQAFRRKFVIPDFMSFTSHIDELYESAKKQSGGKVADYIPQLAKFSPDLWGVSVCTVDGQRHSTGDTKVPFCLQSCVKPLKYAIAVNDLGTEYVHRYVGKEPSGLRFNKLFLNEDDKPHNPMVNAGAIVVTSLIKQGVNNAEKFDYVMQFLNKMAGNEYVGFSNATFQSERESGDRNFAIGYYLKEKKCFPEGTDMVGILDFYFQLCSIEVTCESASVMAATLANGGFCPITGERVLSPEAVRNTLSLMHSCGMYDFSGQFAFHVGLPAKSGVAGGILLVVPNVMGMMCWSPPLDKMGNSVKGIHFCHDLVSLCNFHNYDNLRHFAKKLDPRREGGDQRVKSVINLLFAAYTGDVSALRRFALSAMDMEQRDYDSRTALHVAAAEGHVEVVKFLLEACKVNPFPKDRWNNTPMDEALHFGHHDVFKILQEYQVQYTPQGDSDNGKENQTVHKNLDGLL
In words: Glutaminase activity of analogs. The series is classed as biochemical. The conditions noted are these: for retention of biological (glutaminase) activity: analogs of chelerythrine, in words.

Series [2] addresses T2, glutaminase (hKGAΔ1) (Homo sapiens, UniProt O94925).
T2 sequence (O94925 124-669 limits assumed): T1 sequence (O94925 124-669 limits assumed)
In words: Inactivation studies: time-dependent inhibition of glutaminase. The series is classed as biochemical. The conditions noted are these: for KI (inactivation): read-out: Ki (inactivation studies); for time- and concentration-dependence of glutaminase inactivation: in words.

Series [3] has as its target T3, mouse c-type glutaminase (mGAC) (Mus musculus, UniProt D3Z7P3).
T3 sequence (D3Z7P3 55-603 isoform D3Z7P3-2 limits assumed): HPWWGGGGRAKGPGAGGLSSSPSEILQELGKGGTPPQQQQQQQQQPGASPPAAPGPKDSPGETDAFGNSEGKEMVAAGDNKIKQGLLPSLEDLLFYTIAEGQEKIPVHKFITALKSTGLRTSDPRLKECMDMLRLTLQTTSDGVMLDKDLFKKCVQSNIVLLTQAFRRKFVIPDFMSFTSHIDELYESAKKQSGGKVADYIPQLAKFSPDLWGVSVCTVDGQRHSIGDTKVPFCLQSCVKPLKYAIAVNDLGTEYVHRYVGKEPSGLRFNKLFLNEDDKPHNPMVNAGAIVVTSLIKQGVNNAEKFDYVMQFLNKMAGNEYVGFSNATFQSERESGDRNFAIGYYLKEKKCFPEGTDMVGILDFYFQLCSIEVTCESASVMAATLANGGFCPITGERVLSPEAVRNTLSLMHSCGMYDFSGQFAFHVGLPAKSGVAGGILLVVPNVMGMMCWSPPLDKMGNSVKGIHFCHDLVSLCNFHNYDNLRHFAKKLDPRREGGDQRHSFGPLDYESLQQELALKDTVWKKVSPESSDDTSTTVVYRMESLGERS
In words: Glutaminase activity, Amplex UltraRed fluorescent assay. The series is classed as biochemical.

The target in series [4] is T4, mouse liver glutaminase (mLGA) (Mus musculus, UniProt Q571F8).
T4 sequence (Q571F8 15-602): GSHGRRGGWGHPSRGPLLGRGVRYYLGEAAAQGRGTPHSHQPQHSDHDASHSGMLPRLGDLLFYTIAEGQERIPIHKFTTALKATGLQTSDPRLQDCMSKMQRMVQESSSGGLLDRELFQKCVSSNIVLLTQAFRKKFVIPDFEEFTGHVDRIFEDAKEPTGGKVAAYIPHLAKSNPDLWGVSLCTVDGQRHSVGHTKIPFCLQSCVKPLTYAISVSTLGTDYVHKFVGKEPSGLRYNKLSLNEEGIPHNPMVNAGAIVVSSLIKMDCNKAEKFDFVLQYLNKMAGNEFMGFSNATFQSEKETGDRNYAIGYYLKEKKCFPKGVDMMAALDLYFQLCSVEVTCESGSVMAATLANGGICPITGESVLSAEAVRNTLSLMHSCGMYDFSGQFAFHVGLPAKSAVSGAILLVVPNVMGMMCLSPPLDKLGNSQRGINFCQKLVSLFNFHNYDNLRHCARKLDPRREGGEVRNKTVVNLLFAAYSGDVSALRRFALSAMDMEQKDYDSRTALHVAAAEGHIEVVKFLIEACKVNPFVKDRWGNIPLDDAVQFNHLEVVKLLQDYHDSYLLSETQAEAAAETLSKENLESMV
Described as above. The series is classed as biochemical. The settings on record: for activity against GLS2 (mLGA) relative to GLS1 isoforms: fold less activity against GLS2 than GLS1 (hKGAΔ1, mGAC).

Series [5] is described as follows: Solubility. The conditions noted are these: in words, no data shown. The format is physicochemical.
The target of series [6] is T2, glutaminase (hKGAΔ1). The series is classed as biochemical. The settings on record: for Ki: Ki (competition studies), presence of glutamine; for Mode of inhibition: competition studies, average of 2–4 determinations.
For series [7] the following is noted: in vivo; cited from earlier work.
The target in series [8] is T5, hKGAΔ1 (GLS1) (Homo sapiens, UniProt O94925).
T5 sequence (O94925 124-669 limits assumed): T1 sequence (O94925 124-669 limits assumed)
In words: Glutaminase activity, Amplex UltraRed fluorescent assay. The format is biochemical.

Where [9] appears, read: read-out: Avg. IC50, Table 6, analogs of apomorphine.

“And” between values parts separate entries of the source, which are not always exact repeats. Equal entries are not always repeated. “Also recorded” adds a separate entry of the source. Structures can show the parent of a compound that is named as a salt. Where two headings read alike, the source gives them in different places.

The IC50 is the point on the concentration scale where inhibition reaches its midpoint. Turning to `O=C1c2ccccc2CN1c1ccccc1` [2-Phenyl isoindolin-1-one], in series [1], the IC50 is more than 100000 nM.

`O=c1c2ccccc2on1-c1ccccc1` [2-Phenylbenzo[d] isoxazol-3(2H)-one] displayed an IC50 in series [1] of 20000 nM.

For the compound `O=c1c2ccccc2sn1-c1ccccc1` [2-Phenylbenzo[d]isothiazol-3(2H)-one], in series [1], half-maximal inhibition (IC50) was put at 20 nM.

By kinact/KI is commonly meant the maximal inactivation rate divided by the concentration that gives half of it. For orientation: kinact means the maximal first-order rate at which the target is inactivated. One may read the Ki as a dissociation constant, usually derived from enzyme kinetics or from competition with a known ligand. `CN1CCc2cccc3c2C1Cc1ccc(O)c(O)c1-3` (stereo not shown) [Apomorphine hydrochloride, 5,6,6a,7-tetrahydro-6-methyl-4H-dibenzo[de,g] quinoline-10,11-diol]: the kinact/KI in series [2] came out at 13200 M⁻¹ s⁻¹. Moreover, the kinact in series [2] (rate constant of inactivation) is 5.56e-05 s⁻¹. Further, in series [2], the KI (inactivation) turned out to be 4 nM. In addition, the values for the IC50 in series [3], in series [4] and in series [1] were 1000 nM, 300 nM and 600 nM, respectively. In addition, the “solubility relative to BPTES” value in series [5] is “more soluble than BPTES”. For the same compound, the Ki in series [6] is 2000 nM. Moreover, the results for the Mode of inhibition result in series [6] and in series [6] (listed as apomorphine) were “Competitive” and “competitive inhibition”, respectively.

Regarding `O=C(Cc1ccccc1)Nc1nnc(CCSCCc2nnc(NC(=O)Cc3ccccc3)s2)s1` [BPTES, bis-2-(5-phenylacetimido-1,2,4-thiadiazol-2-yl)ethyl sulfide], in series [7], the bioavailability result is on record as “low bioavailability”.

With `COc1ccc2cc3[n+](cc2c1OC)CCc1cc2c(cc1-3)OCO2` [Berberine chloride, 5,6-dihydro-9,10-dimethoxy-benzo[g]-[1,3] benzodioxolo[5,6-a]quinolizinium], in series [1], the IC50 is more than 100000 nM and the “retention of biological (glutaminase) activity” value (“retention of biological” below) was “did not maintain activity”.

With `COc1ccc2c(c[n+](C)c3c4cc5c(cc4ccc23)OCO5)c1OC` [Chelerythrine chloride, 1,2-dimethoxy-N-methyl[1,3]benzodioxolo[5,6-c]phenanthridinium], the kinact/KI in series [2] is 29200 M⁻¹ s⁻¹. Besides, in series [2] (rate constant of inactivation), the kinact was 0.000958 s⁻¹. In series [2], the KI (inactivation) worked out at 30 nM. The IC50 in series [3] was determined as 70 nM; in series [4], 300 nM; in series [1], 30 nM; in series [8], 30 nM. Moreover, the “activity against GLS2 (mLGA) relative to GLS1 isoforms” value in series [4] is 5 to 10 fold. The “solubility relative to BPTES” value in series [5] was “more soluble than BPTES”. Also, the Mode of inhibition result is given as “Competitive” in series [6] and “competitive inhibition” in series [6] (listed as chelerythrine).

In the case of `[N-]=[N+]=CC(=O)CC[C@H](N)C(=O)O` [DON, 6-diazo-5-oxo-L-norleucine], in series [2], the kinact/KI came out at 2.53 M⁻¹ s⁻¹; the “time- and concentration-dependence of glutaminase inactivation” value was “both concentration and time of incubation dependent; also recorded: time-dependent and irreversible”; the KI (inactivation) was found to be 6000 nM. The kinact in series [2] (rate constant of inactivation) was 1.39e-05 s⁻¹. Further, the Mode of inhibition entry in series [6] is given as “Time-dependent”.

Take `O=c1c2ccccc2[se]n1-c1ccccc1` [Ebselen, 2-phenyl-1,2-benzisoselenazol-3[2H]-one]: in series [2], the kinact was 0.000367 s⁻¹; the kinact/KI turned out to be 25200 M⁻¹ s⁻¹; the “time- and concentration-dependence of glutaminase inactivation” value is “dependent on both concentration and time of incubation”; the KI (inactivation) was ~14 nM and 14 nM. Also, the kinact in series [2] (rate constant of inactivation) was 0.000364 s⁻¹. The compound further showed an IC50 in series [3] of 20 nM. In series [4], the IC50 was determined as 100 nM and the “activity against GLS2 (mLGA) relative to GLS1 isoforms” value was 5 to 10 fold. Also, the “solubility relative to BPTES” value in series [5] is reported as “more soluble than BPTES”. Moreover, in series [6], the Ki is ~15 nM and 15 nM; the Mode of inhibition result is “Mixed non-competitive”. Moreover, the “decrease in Vmax” value in series [6] (as the concentration of inhibitor was increased) was 6 fold. Further, the Mode of inhibition result in series [6] (listed as ebselen) is listed as “mixed non-competitive inhibition”. In series [8], this compound came in with an IC50 of 8 nM.

In series [1], `COc1cc2c[n+](C)c3c4cc5c(cc4ccc3c2cc1OC)OCO5` [Nitidine chloride, 2,3-dimethoxy-N-methyl[1,3]benzodioxolo[5,6-c]phenanthridinium] gave an IC50 of 9000 nM. The “retention of biological” value in series [1] (listed as nitidine) is recorded as “retained”; in series [1] (listed as nitidine chloride), “retained biological activity”.

As to `c1cc2c(cnc3c4cc5c(cc4ccc23)OCO5)c2c1OCO2` [Norsanguinarine chloride, [1,3]-benzodioxolo[5,6-c]-1,3-dioxolo[4,5-i]phenanthridine], in series [1], the IC50 was more than 100000 nM and the “retention of biological” value is recorded as “biological activity was lost”.

In series [1], `C[n+]1cc2c3c(ccc2c2ccc4cc5c(cc4c21)OCO5)OCO3` [Sanguinarine chloride, 13-methyl-[1,3]-benzodioxolo[5,6-c]-1,3-dioxolo[4,5-i]phenanthridinium] displayed an IC50 of 100 nM. The “retention of biological” value in series [1] (listed as sanguinarine) was “retained”; in series [1] (listed as sanguinarine chloride), “retained biological activity”.

Take `CN1CCc2cccc3c2[C@@H]1Cc1ccc(O)c(O)c1-3` [S–Apomorphine hydrochloride]: the IC50 in series [1] (setting [9]) was 400 nM.

R(−)-Apocodeine hydrochloride: the “loss of activity relative to apomorphine” value in series [1] (hydroxyl replaced with methoxy) was found to be 10 fold. In addition, the IC50 in series [1] (setting [9]) was determined as 4000 nM.

Regarding R(−)-Propylnorapomorphine hydrochloride, in series [1] (setting [9]), the IC50 was determined as 900 nM.

(Values after PMC4094369 (Biochemical and biophysical research communications, 2013).)
